Experimental data taken from PMC11904707, “Cyclization of Two Antimicrobial Peptides Improves Their Activity” (ACS Omega, 2025).
Converted amounts (≈) assume the structure as drawn. Where two headings read alike, the source gives them in different places. Peptide text beside a SMILES is read from it.

Key:
[1] = tested on: Enterococci (EF500, EF678, EF679, EF787); assay: organism not typed; type: cell-based; details: read-out: MIC G(+) Entcoc
Procedure: (§1) Bacterial clinical isolates used for initial screening were anonymously provided by the clinical microbiology laboratory of the University of Pittsburgh Medical Center (UPMC). Bacteria were stored at −80 °C and typically retrieved by obtaining single colonies on agar plates prior to subsequent liquid broth culture. Suspensions of test bacteria were prepared from the log phase of growth by diluting overnight cultures at 1:100 with fresh cation-adjusted Mueller–Hinton Broth (MHB2) and incubating for an additional 3–4 h. Bacteria were spun at 3000 g for 10 min. The pellet was resuspended in Test Condition Media to determine bacterial turbidity using a Den-1B densitometer (Grant Instruments, Beaver Falls, PA) at 0.5 McFarland units corresponding to 10^8 CFU/mL.
(§2) To examine antibacterial activity, we used minor modifications of a standard growth inhibition assay endorsed by the Clinical and Laboratory Standards Institute (CLSI), as previously described.[13] Bacteria were incubated with each of the indicated peptides in MHB2. The bacterial cells were kept in an incubator for 18 h at 37 °C, which is linked to a robotic system that feeds a plate reader every hour with one of 8 × 96-well plates. The 96-well plates are standard flat-bottom microliter plates purchased from Thermo Fisher (Waltham, MA). This setup allows the collection of growth kinetic data at A 570 (absorbance at 570 nm) to examine growth inhibition in real-time (BioTek Instruments, Winooski, VT). […] The assays are typically repeated a second time. If the MIC differs from the first assay, a third experimental trial is performed to confirm the MIC.

[2] = tested on: Pseudomonas aerginosa (PA231, PA235, PA239, PA249); assay: MIC growth inhibition assay, Pseudomonas aeruginosa clinical isolates; type: cell-based; details: average of four strains, MHB2, 18 h, 37 °C, A570 growth curves
Procedure: as §1, §2

[3] = tested on: G(+) bacteria (two species); assay: MIC growth inhibition assay, average over G(+) species; type: cell-based; details: average of the average MICs of two G(+) species, ± spread
Procedure: as §1, §2

[4] = tested on: Enterobacter (EA62, EC544, EC547, EA1042); assay: MIC growth inhibition assay, Enterobacter clinical isolates; type: cell-based; details: average of four strains, MHB2, 18 h, 37 °C, A570 growth curves, read-out: MIC G(−) Entbac
Procedure: as §1, §2

[5] = tested on: G(−) bacteria (five species); assay: MIC growth inhibition assay, average over G(−) species; type: cell-based; details: average of the average MICs of five G(−) species, ± spread
Procedure: as §1, §2

[6] = tested on: Acinetobacter baumannii (AB78, AB83, AB273, AB275); assay: microbe, parasite or virus in culture; type: cell-based
Procedure: as §1, §2

[7] = tested on: Escherichia coli (EC541, EC543, EC546, EC549); assay: microbe, parasite or virus in culture; type: cell-based
Procedure: as §1, §2

[8] = tested on: Staphylococcus aureus (SA703, SA722, SA729); assay: microbe, parasite or virus in culture; type: cell-based
Procedure: as §1, §2

[9] = tested on: Klebsiella pneumoniae (KP106, KP506, KP542, KP550); assay: microbe, parasite or virus in culture; type: cell-based
Procedure: as §1, §2

[10] = tested on: Staphylococcus hemolyticus 730; assay: microbe, parasite or virus in culture; type: cell-based; details: for MIC: then MIC vs Staphylococcus hemolyticus 730; for MIC after 1-Hr AB incubation / MIC after 1-Hr NE digestion / MIC after 4-Hr AB incubation / MIC after 4-Hr NE digestion: pH 8
Procedure: One motivation in designing linear or cyclic AMPs is to prevent proteolytic degradation that can occur with helical peptides. […] Linezolid, a conventional antibiotic was included for comparison.
as §2
The neutrophil elastase was dissolved in 200 mmol/L Tris buffer, pH 8.8, and used at a molar ratio of 1:50 with the peptide in 200 mM ammonium bicarbonate pH 8.0 for 1 or 4 h. The control experiment incubated the peptides alone in 200 mmol/L ammonium bicarbonate for 1 or 4 h. Upon completion of the incubations, the peptides were serially diluted to test MIC. 50% (v/v) MHB2 was added to the plates. MIC was determined as described above.

[11] = tested on: human red blood cells (RBCs); details: cited from earlier work
Excerpt: Table 2 Antibacterial Activity and Toxicity of CE-03, LE-53, CE-05 and LE-55 Peptides ^a | column: % toxicity / RBC || The secondary structure of AMPs as they encounter membranes may correlate with their toxicity; it has long been thought that helical peptides are more toxic to eukaryotic cells than nonhelical peptides. Our group has found a positive correlation between helicity and toxicity for WLBU2,[18] the E2-peptides,[28] and SPLUNC1-derived antimicrobial peptides.[34] We have also seen the converse, that nonhelical peptides are nontoxic,[18],[26] supporting the positive correlation between helicity and toxicity. Several literature studies have also found a correlation between α-helicity and toxicity to e ...

[12] = average of four strains, MHB2, 18 h, 37 °C, A570 growth curves
[13] = EC541, EC543, EC546, EC549, 18 h
[14] = KP106, KP506, KP542, KP550, 18 h

## colistin
[1]; [12]
  MIC: 32.0 µM
[2]
  MIC: 8.4 µM
[3]
  MIC G(+) average: 48.0 ± 23.0 µM
[4]
  MIC: 12.1 µM
[5]
  MIC G(−) average: 5.2 ± 4.3 µM
[6]; [12]
  MIC: 0.5 µM
[7]; [12]
  MIC: 4.3 µM
[8]; average of strains SA703, SA722, SA729, MHB2, 18 h, 37 °C, A570 growth curves
  MIC: 64.0 µM
[9]; [12]
  MIC: 0.7 µM

## CC(=O)NC[C@H]1CN(c2ccc(N3CCOCC3)c(F)c2)C(=O)O1 [linezolid]
[10]; control: peptide alone in 200 mmol/L ammonium bicarbonate pH 8.0, 1 h, read-out: MIC after 1-Hr AB incubation
  MIC: > 16 µM
[10]; control: peptide alone in 200 mmol/L ammonium bicarbonate pH 8.0, 4 h, read-out: MIC after 4-Hr AB incubation
  MIC: > 16 µM
[10]; human neutrophil elastase, molar ratio 1:50 with peptide, 200 mM ammonium bicarbonate pH 8.0, 1 h, read-out: MIC after 1-Hr NE digestion
  MIC: > 16 µM
[10]; human neutrophil elastase, molar ratio 1:50 with peptide, 200 mM ammonium bicarbonate pH 8.0, 4 h, read-out: MIC after 4-Hr NE digestion
  MIC: > 16 µM

## CC(C)[C@H](NC(=O)[C@@H](NC(=O)[C@H](Cc1c[nH]c2ccccc12)NC(=O)[C@H](Cc1c[nH]c2ccccc12)NC(=O)[C@H](Cc1c[nH]c2ccccc12)NC(=O)[C@H](Cc1c[nH]c2ccccc12)NC(=O)[C@H](CCCNC(=N)N)NC(=O)[C@H](CCCNC(=N)N)NC(=O)[C@H](CCCNC(=N)N)NC(=O)[C@H](CCCNC(=N)N)NC(=O)[C@H](CCCNC(=N)N)NC(=O)[C@@H](N)CCCNC(=N)N)C(C)C)C(=O)O [LE-53] (H-RRRRRRWWWWVV-OH)
[10]
  MIC after 1-Hr AB incubation: 2.0 ± 0 µM (≈ 3.8 µg/mL)
  MIC after 1-Hr NE digestion: 2.0 ± 0 µM (≈ 3.8 µg/mL)
  MIC after 4-Hr AB incubation: 3.0 ± 1.4 µM (≈ 5.69 µg/mL)
  MIC after 4-Hr NE digestion: 1.5 ± 0.7 µM (≈ 2.85 µg/mL)
[11]
  toxicity (in words): nontoxic

## NC[C@H]1O[C@H](O[C@H]2[C@H](O)[C@@H](O[C@H]3O[C@H](CO)[C@@H](O)[C@H](N)[C@H]3O)[C@H](N)C[C@@H]2N)[C@H](N)C[C@@H]1O [tobramycin]
[1]; [12]
  MIC: 25 µM (≈ 11.7 µg/mL)
[2]; Pseudomonas
  MIC: 32 µM (≈ 15 µg/mL)
[3]
  MIC: 19 ± 1 µM (≈ 8.88 µg/mL)
[4]; Enterobacter
  MIC: 24.5 µM (≈ 11.5 µg/mL)
[5]
  MIC: 23.7 ± 3.4 µM (≈ 11.1 µg/mL)
[6]; Acinetobacter baumannii, average of four strains, MHB2, 18 h, 37 °C, A570 growth curves
  MIC: 32 µM (≈ 15 µg/mL)
[7]; Escherichia coli, average of four strains, MHB2, 18 h, 37 °C, A570 growth curves
  MIC: 28 µM (≈ 13.1 µg/mL)
[8]; Staphylococcus aureus, average of strains SA703, SA722, SA729, MHB2, 18 h, 37 °C, A570 growth curves
  MIC: 13.1 µM (≈ 6.12 µg/mL)
[9]; Klebsiella pneumoniae, average of four strains, MHB2, 18 h, 37 °C, A570 growth curves
  MIC: 2.1 µM (≈ 0.982 µg/mL)

## CC(C)[C@H](NC(=O)[C@@H](NC(=O)[C@@H](NC(=O)[C@@H](NC(=O)[C@H](Cc1c[nH]c2ccccc12)NC(=O)[C@H](Cc1c[nH]c2ccccc12)NC(=O)[C@H](Cc1c[nH]c2ccccc12)NC(=O)[C@H](Cc1c[nH]c2ccccc12)NC(=O)[C@H](CCCNC(=N)N)NC(=O)[C@H](CCCNC(=N)N)NC(=O)[C@H](CCCNC(=N)N)NC(=O)[C@H](CCCNC(=N)N)NC(=O)[C@H](CCCNC(=N)N)NC(=O)[C@H](CCCNC(=N)N)NC(=O)[C@H](CCCNC(=N)N)NC(=O)[C@@H](N)CCCNC(=N)N)C(C)C)C(C)C)C(C)C)C(=O)O [LE-55] (H-RRRRRRRRWWWWVVVV-OH)
[10]
  MIC after 1-Hr AB incubation: 16.0 ± 0 µM (≈ 38.5 µg/mL)
  MIC after 1-Hr NE digestion: 3.0 ± 1.4 µM (≈ 7.23 µg/mL)
  MIC after 4-Hr AB incubation: 6.0 ± 2.8 µM (≈ 14.5 µg/mL)
  MIC after 4-Hr NE digestion: 3.0 ± 1.4 µM (≈ 7.23 µg/mL)
[11]
  toxicity (in words): nontoxic

## CC(C)[C@@H]1NC(=O)[C@H](Cc2c[nH]c3ccccc23)NC(=O)[C@H](Cc2c[nH]c3ccccc23)NC(=O)[C@H](Cc2c[nH]c3ccccc23)NC(=O)[C@H](Cc2c[nH]c3ccccc23)NC(=O)[C@H](CCCNC(=N)N)NC(=O)[C@H](CCCNC(=N)N)NC(=O)[C@H](CCCNC(=N)N)NC(=O)[C@H](CCCNC(=N)N)NC(=O)[C@H](CCCNC(=N)N)NC(=O)[C@H](CCCNC(=N)N)NC(=O)[C@H](C(C)C)NC1=O [CE-03] (cyclo(RRRRRRWWWWVV))
[10]
  MIC after 1-Hr AB incubation: 1.0 ± 0.0 µM (≈ 1.88 µg/mL)
  MIC after 1-Hr NE digestion: 1.5 ± 0.7 µM (≈ 2.82 µg/mL)
  MIC after 4-Hr AB incubation: 1.0 ± 0 µM (≈ 1.88 µg/mL)
  MIC after 4-Hr NE digestion: 1.0 ± 0 µM (≈ 1.88 µg/mL)
[1]; 18 h
  MIC: 0.9 µM (≈ 1.69 µg/mL)
[2]
  MIC: 7.1 µM (≈ 13.3 µg/mL)
[3]
  MIC G(+) average: 1.6 ± 0.7 µM (≈ 3.01 µg/mL)
[4]
  MIC: 3.7 µM (≈ 6.96 µg/mL)
[5]
  MIC G(−) average: 4.6 ± 1.3 µM (≈ 8.65 µg/mL)
[6]; AB78, AB83, AB273, AB275, 18 h
  MIC: 2.2 µM (≈ 4.14 µg/mL)
[7]; [13]
  MIC: 1.5 µM (≈ 2.82 µg/mL)
[8]; SA703, SA722, SA729, 18 h
  MIC: 2.3 µM (≈ 4.32 µg/mL)
[9]; [14]
  MIC: 8.2 µM (≈ 15.4 µg/mL)

## CC(C)[C@@H]1NC(=O)[C@H](Cc2c[nH]c3ccccc23)NC(=O)[C@H](Cc2c[nH]c3ccccc23)NC(=O)[C@H](Cc2c[nH]c3ccccc23)NC(=O)[C@H](Cc2c[nH]c3ccccc23)NC(=O)[C@H](CCCNC(=N)N)NC(=O)[C@H](CCCNC(=N)N)NC(=O)[C@H](CCCNC(=N)N)NC(=O)[C@H](CCCNC(=N)N)NC(=O)[C@H](CCCNC(=N)N)NC(=O)[C@H](CCCNC(=N)N)NC(=O)[C@H](CCCNC(=N)N)NC(=O)[C@H](CCCNC(=N)N)NC(=O)[C@H](C(C)C)NC(=O)[C@H](C(C)C)NC(=O)[C@H](C(C)C)NC1=O [CE-05] (cyclo(RRRRRRRRWWWWVVVV))
[10]
  MIC after 1-Hr AB incubation: 6.0 ± 2.8 µM (≈ 14.3 µg/mL)
  MIC after 1-Hr NE digestion: 3.0 ± 1.4 µM (≈ 7.17 µg/mL)
  MIC after 4-Hr AB incubation: 4.0 ± 0 µM (≈ 9.56 µg/mL)
  MIC after 4-Hr NE digestion: 3.0 ± 1.4 µM (≈ 7.17 µg/mL)
[2]
  MIC: 6.1 µM (≈ 14.6 µg/mL)
[4]
  MIC: 3.2 µM (≈ 7.65 µg/mL)
[5]
  MIC G(−) average: 3.9 ± 1.1 µM (≈ 9.32 µg/mL)
[6]; AB78, AB83, AB273, AB275, 18 h
  MIC: 1.1 µM (≈ 2.63 µg/mL)
[7]; [13]
  MIC: 2.5 µM (≈ 5.98 µg/mL)
[8]; SA703, SA722, SA729, 18 h
  MIC: 1.0 µM (≈ 2.39 µg/mL)
[9]; [14]
  MIC: 6.7 µM (≈ 16 µg/mL)
